Measured values reported in patent US20160193206A1, “BET-PROTEIN-INHIBITING DIHYDROPYRIDOPYRAZINONES” (BAYER PHARMA AKTIENGESELLSCHAFT, priority 2012, published 2016).

Tests used:
[1] = target: T1, BRD4 bromo domain 1 [BRD4(1)] (Homo sapiens, UniProt O60885); assay: BRD4(1)/acetylated peptide H4 binding assay (TR-FRET); settings: inhibition of interaction between His6-tagged BRD4(1) (amino acids 67-152) and acetylated histone H4 peptide
T1 construct: N-terminally His6-tagged BRD4(1) (amino acids 67-152); made in house; host or cells: E. coli
Text: (§1) Protein-Protein Interaction Assay: BRD4/Acetylated Peptide H4 Binding Assay
1. Assay Description for BRD4 Bromo Domain 1 [BRD4(1)]
To assess the BRD4(1) binding strength of the substances described in this application, the ability thereof to inhibit the interaction between BRD4(1) and acetylated histone H4 in a dose-dependent manner was quantified.
(§2) For this purpose, a time-resolved fluorescence resonance energy transfer (TR-FRET) assay was used, which measures the binding between N-terminally His6-tagged BRD4(1) (amino acids 67-152) and a synthetic acetylated histone H4 (Ac-H4) peptide with sequence GRGK(Ac)GGK(Ac)GLGK(Ac)GGAK(Ac)RHGSGSK-biotin. The recombinant BRD4(1) protein produced in-house according to Filippakopoulos et al., Cell, 2012, 149:214-231 was expressed in E. coli and purified by means of (Ni-NTA) affinity and (Sephadex G-75) size exclusion chromatography. The Ac-H4 peptide can be purchased, for example, from Biosyntan (Berlin, Germany).
(§3) In the assay, typically 11 different concentrations of each substance (0.1 nM, 0.33 nM, 1.1 nM, 3.8 nM, 13 nM, 44 nM, 0.15 μM, 0.51 μM, 1.7 μM, 5.9 μM and 20 μM) were analysed as duplicates on the same microtitre plate. For this purpose, 100-fold concentrated solutions in DMSO were prepared by serial dilutions (1:3.4) of a 2 mM stock solution into a clear, 384-well microtitre plate (Greiner Bio-One, Frickenhausen, Germany). From this, 50 nl were transferred into a black test plate (Greiner Bio-One, Frickenhausen, Germany). The test was started by the addition of 2 μl of a 2.5-fold concentrated BRD4(1) solution (final concentration typically 10 nM in the 5 μl of reaction volume) in aqueous assay buffer [50 mM HEPES pH 7.5, 50 mM sodium chloride (NaCl), 0.25 mM CHAPS and 0.05% serum albumin (BSA)] to the substances in the test plate. This was followed by a 10-minute incubation step at 22° C. for the pre-equilibration of putative complexes between BRD4(1) and the substances.
(§4) The mixture was then incubated in the dark at 22° C. for one hour and then at 4° C. for at least 3 hours and for no longer than overnight. The formation of BRD4(1)/Ac-H4 complexes was determined by the measurement of the resonance energy transfer from the streptavidin-Eu cryptate to the anti-6His-XL665 antibody present in the reaction. For this purpose, the fluorescence emission was measured at 620 nm and 665 nm after excitation at 330-350 nm in a TR-FRET measuring instrument, for example a Rubystar or Pherastar (both from BMG Lab Technologies, Offenburg, Germany) or a Viewlux (Perkin-Elmer). The ratio of the emissions at 665 nm and at 622 nm was taken as an indicator of the amount of BRD4(1)/Ac-H4 complexes formed.
(§5) The data (ratios) obtained were normalized, with 0% inhibition corresponding to the mean from the measurements for a set of controls (typically 32 data points) in which all the reagents were present. In these, in place of test substances, 50 nl of DMSO (100%) were used. Inhibition of 100% corresponded to the mean from the measurements for a set of controls (typically 32 data points) in which all the reagents except BRD4(1) were present. The IC50 was determined by regression analysis based on a 4-parameter equation (minimum, maximum, IC50, Hill; Y=max+(min−max)/(1+(X/IC50)Hill).

[2] = target: T2, BRD4 bromo domain 2 [BRD4(2)] (Homo sapiens, UniProt O60885); assay: BRD4(2)/acetylated peptide H4 binding assay (TR-FRET); settings: inhibition of interaction between His6-tagged BRD4(2) (amino acids 357-445) and acetylated histone H4 peptide
T2 construct: N-terminally His6-tagged BRD4(2) (amino acids 357-445); made in house; host or cells: E. coli
Text: as §1
2. Assay Description for BRD4 Bromo Domain 2 [BRD4(2)]
To assess the BRD4(2) binding strength of the substances described in this application, the ability thereof to inhibit the interaction between BRD4(2) and acetylated histone H4 in a dose-dependent manner was quantified.
as §2, with “BRD4(2)” for “BRD4(1)”, “357-445)” for “67-152)”, “SGRGK(Ac)GGK(Ac)GLGK(Ac)GGAK(Ac)RHRKVLRDNGSGSK-biotin.” for “GRGK(Ac)GGK(Ac)GLGK(Ac)GGAK(Ac)RHGSGSK-biotin.”
as §3, with “concentrated BRD4(2)” for “concentrated BRD4(1)”, “typically 100” for “typically 10”, “chloride (NaCl); 50 mM potassium fluoride (KF);” for “chloride (NaCl),”, “between BRD4(2)” for “between BRD4(1)”
as §4, with “BRD4(2)/Ac-H4” for “BRD4(1)/Ac-H4”, “chelate” for “cryptate”
as §5, with “BRD4(2)” for “BRD4(1)”

COc1cc(C(=O)N2CC3(CCS3(=O)=O)C2)ccc1Nc1ccc2c(n1)N(C1CCCCC1)[C@H](C)C(=O)N2C [Example 74, (3R)-4-Cyclohexyl-6-({4-[(1,1-dioxido-1-thia-6-azaspiro[3.3]hept-6-yl)carbonyl]-2-methoxyphenyl}amino)-1,3-dimethyl-3,4-dihydropyrido[2,3-b]pyrazin-2(1H)-one]
IC50 [1]: 0.3 µM | IC50 [2]: 0.156 µM

C[C@@H]1C(=O)N(C)c2ccc(Nc3ccc(C(=O)N4CCN(C(=O)OC(C)(C)C)CC4)cc3)nc2N1Cc1ccccc1 [Example 76, tert-Butyl 4-(4-{[(3R)-4-benzyl-1,3-dimethyl-2-oxo-1,2,3,4-tetrahydropyrido[2,3-b]pyrazin-6-yl]amino}benzoyl)piperazine-1-carboxylate]
IC50 [1]: 0.84 µM | IC50 [2]: 0.273 µM

COc1cc(C(=O)N2CC3(CCS3(=O)=O)C2)ccc1Nc1ccc2c(n1)N(C1CCCCCC1)[C@H](C)C(=O)N2C [Example 84, (3R)-4-Cycloheptyl-6-({4-[(1,1-dioxido-1-thia-6-azaspiro[3.3]hept-6-yl)carbonyl]-2-methoxyphenyl}amino)-1,3-dimethyl-3,4-dihydropyrido[2,3-b]pyrazin-2(1H)-one]
IC50 [1]: 0.448 µM | IC50 [2]: 0.165 µM

C[C@@H]1C(=O)N(C)c2ccc(Nc3ccc(C(=O)NC4CN(C)C4)cc3)nc2N1C1CCCCCC1 [Example 85, 4-{[(3R)-4-Cycloheptyl-1,3-dimethyl-2-oxo-1,2,3,4-tetrahydropyrido[2,3-b]pyrazin-6-yl]amino}-N-(1-methylazetidin-3-yl)benzamide]
IC50 [1]: 0.186 µM | IC50 [2]: 0.098 µM

CC(=O)N1CCC(NC(=O)c2ccc(Nc3ccc4c(n3)N(C3CCCCCC3)[C@H](C)C(=O)N4C)cc2)CC1 [Example 86, N-(1-Acetylpiperidin-4-yl)-4-{[(3R)-4-cycloheptyl-1,3-dimethyl-2-oxo-1,2,3,4-tetrahydropyrido[2,3-b]pyrazin-6-yl]amino}benzamide]
IC50 [1]: 0.18 µM | IC50 [2]: 0.1 µM

COc1cc(C(=O)NC2CN(C)C2)ccc1Nc1ccc2c(n1)N(C1CCCCCC1)[C@H](C)C(=O)N2C [Example 87, 4-{[(3R)-4-Cycloheptyl-1,3-dimethyl-2-oxo-1,2,3,4-tetrahydropyrido[2,3-b]pyrazin-6-yl]amino}-3-methoxy-N-(1-methylazetidin-3-yl)benzamide]
IC50 [1]: 0.216 µM | IC50 [2]: 0.075 µM

COc1cc(C(=O)NC2CCN(C(C)=O)CC2)ccc1Nc1ccc2c(n1)N(C1CCCCCC1)[C@H](C)C(=O)N2C [Example 88, N-(1-Acetylpiperidin-4-yl)-4-{[(3R)-4-cycloheptyl-1,3-dimethyl-2-oxo-1,2,3,4-tetrahydropyrido[2,3-b]pyrazin-6-yl]amino}-3-methoxybenzamide]
IC50 [1]: 0.339 µM | IC50 [2]: 0.146 µM

C[C@@H]1C(=O)N(C)c2ccc(Nc3ccc(C(=O)NCCN4CCN(C)CC4)cc3)nc2N1C1CCCCCC1 [Example 89, 4-{[(3R)-4-Cycloheptyl-1,3-dimethyl-2-oxo-1,2,3,4-tetrahydropyrido[2,3-b]pyrazin-6-yl]amino}-N-{2-(4-methylpiperazin-1-yl)ethyl]benzamide]
IC50 [1]: 0.185 µM | IC50 [2]: 0.093 µM

C[C@@H]1C(=O)N(C)c2ccc(Nc3ccc(C(=O)NC4CCC(O)CC4)cc3)nc2N1C1CCCCCC1 (stereo partly drawn) [Example 90, 4-{[(3R)-4-Cycloheptyl-1,3-dimethyl-2-oxo-1,2,3,4-tetrahydropyrido[2,3-b]pyrazin-6-yl]amino}-N-(4-hydroxycyclohexyl)benz-amide]
IC50 [1]: 0.341 µM | IC50 [2]: 0.208 µM

CC(C)N1CCN(C(=O)c2ccc(Nc3ccc4c(n3)N(C3CCCCCC3)[C@H](C)C(=O)N4C)cc2)CC1 [Example 92, (3R)-4-Cylcoheptyl-1,3-dimethyl-6-[(4-{[4-(propan-2-yl)piperazin-1-yl]carbonyl}phenyl)amino]-3,4-dihydropyrido[2,3-b]pyrazin-2(1H)-one]
IC50 [1]: 0.325 µM | IC50 [2]: 0.209 µM

C[C@@H]1C(=O)N(C)c2ccc(Nc3ccc(C(=O)N4CC5(COC5)C4)cc3)nc2N1C1CCCCCC1 [Example 93, (3R)-4-Cycloheptyl-1,3-dimethyl-6-{[4-(2-oxa-6-azaspiro[3.3]hept-6-ylcarbonyl)phenyl]amino}-3,4-dihydropyrido[2,3-b]pyrazin-2(1H)-one]
IC50 [1]: 0.317 µM | IC50 [2]: 0.09 µM

C[C@@H]1C(=O)N(C)c2ccc(Nc3ccc(S(=O)(=O)N(C)C)cc3)nc2N1Cc1ccccc1 [Example 94, 4-{[(3R)-4-Benzyl-1,3-dimethyl-2-oxo-1,2,3,4-tetrahydropyrido[2,3-b]pyrazin-6-yl]amino}-N,N-dimethylbenzenesulphonamide]
IC50 [1]: 0.156 µM | IC50 [2]: 0.111 µM

C[C@@H]1C(=O)N(C)c2ccc(Nc3ccc(S(=O)(=O)N(C)C)cc3)nc2N1C1CCCCCC1 [Example 95, 4-{[(3R)-4-Cycloheptyl-1,3-dimethyl-2-oxo-1,2,3,4-tetrahydropyrido[2,3-b]pyrazin-6-yl]amino}-N,N-dimethylbenzenesulphonamide]
IC50 [1]: 0.589 µM | IC50 [2]: 0.126 µM
